Experimental data from US20040067991A1, “Tetrahydrobenzothiazole analogues as neuroprotective agents” (priority 2003, published 2004).
Entries after “also recorded” stand apart in the source; their conditions may differ. Counter-ions that a name gives are not always drawn. Like-named read-outs stand apart in the source and are kept apart here.

How the values were obtained:
[1] = test system: primary hippocampal neurons; assay: Neuronal survival of primary hippocampal neurons after excitotoxic insult (glutamate); format: cell-based, rat; conditions: for protection of hippocampal neurons against glutamate-induced death (in words): 0.04 μM 1 h before glutamate (20 μM), survival at 24 h; for neuron survival increased: neurons pretreated with compound, death induced by glutamate
Protocol: (§1) Dissociated hippocampal cell cultures were established from embryonic day 18 Sprague-Dawley rats (Harlan, Inc.) as described previously. See Culmsee et al. (2001) J. Neurochem. 77:220-28. Cells were grown in polyethyleneimine-coated plastic dishes or 22 m^2 glass coverslips, and incubated in Neurobasal medium containing B27 supplements, 2 mM L-glutamine, 25 mg/ml gentamycin, 1 mM Hepes (Gibco BRL) and 0.001% gentamicin sulfate. All experiments were performed using 9-10 day-old cultures. Camptothecin and etoposide (Signia) were prepared as 500× stocks in DMSO. Neuron survival was quantified by established methods. See Mattson et al. (1993) Neuron 10:243-54. Briefly, viable neurons in premarked fields (10× objective) were counted before experimental treatment and at specified time points thereafter. Neurons with intact neurites of uniform diameter and soma with a smooth round appearance were considered viable. In contrast neurons with fragmented neurites and vacuolated soma were considered non-viable.
Primary hippocampal neurons were prepared and cultured as described above. Cultures were pretreated with compounds 14 and 1 (0.04 μM) 1 h before exposure to glutamate (20 μM) in Locke's medium. The percentage of neuronal survival 24 h after the onset of insult is given as mean values±SD.

rat hippocampal neurons = assay: Neuronal survival assay in cultured hippocampal neurons treated with camptothecin or etoposide; format: cell-based; conditions: for neuroprotection of hippocampal neurons against camptothecin (in words): 100 nM, added 1 h before camptothecin 5 μM; for neuroprotection of hippocampal neurons against etoposide (in words): added 1 h before etoposide 2.5 μM; for protection of primary hippocampal cells against death induced by camptothecin and etoposide (in words): camptothecin 5 μM, etoposide 2.5 μM; for protection of primary hippocampal cells against death induced by camptothecin and etoposide (in words) / neuronal survival: 24 h; for neuronal survival: pretreated with 100 nM of analogue, then camptothecin (5 μM)
Protocol: 2-amino-4,5,6,7-tetrahydrobenzothiazole hydrogen and 1-(4-methylphenyl)-2-(4,5,6,7-tetrahydro-2-imino-3(2H)-benzothiazolyl)-ethanone hydrobromide and their analogues were assessed for their ability to protect rat hippocampal cells in culture from camptothecin ([…]).
as §1, with “See Culmsee et al. (2001) J. Neurochem.” left out, “See Mattson et al. (1993) Neuron 10:243-54.” left out

caspase activation = assay: Caspase activation; format: cell-based
PC12 cells = assay: Protection of PC12 cells against camptothecin-induced cell death (BCECF AM fluorescence); format: cell-based
Protocol: The 2-amino-4,5,6,7-tetrahydrobenzothiazole hydrogen iodide, 1-(4-methylphenyl)-2-(4,5,6,7-tetrahydro-2-imino-3(2H)-benzothiazolyl)-ethanone hydrobromide, and analogues were tested for their ability to protect PC12 cells against the toxic agent, camptothecin. PC12 cells were cultured in RPMI1640 media containing 10% horse serum and 5% fetal calf serum (37° C., pH 7.4) until confluent. Thereafter, 2.2×10^4 cells per mL were added to each trough of a 96 well plate (approximately 6,270 cells per well 285 μL) and were left to grow for 12 h. The media then was removed and was replaced by media with and without the compounds to be tested, including precursor, PFTα, and numerous analogues (concentration 100-400 nM, prepared in DMSO to a final dilution of 0.4%, 8 wells per concentration). Following 6 h of incubation, camptothecin (40 μM) was added to 4 of each 8 wells, and the cells were incubated for a further 24 h. Cells then were gently washed twice with phosphate buffered saline (PBS: 0.1 M, 37° C., pH 7.4) and were incubated in PBS containing the live-cell indicator dye, 2′,7′-bis(2-carboxyethey)-5-6-carboxyfluorescein AM ester (BCECF AM: 5 μM) (Molecular Probes, CA), for 45 min in minimal light. This fluorescent dye was taken up and retained by live cells. Finally, the cells were washed twice in PBS and their fluorescence then was quantified (excitation: 490 nm, emission: 535 nm, Perkin Elmer HTS 7000).
PC12 cell survival was also assessed. One hundred percent cell survival was determined from cells incubated in the absence of both any compound and camptothecin. […] Compound-induced toxicity was assessed by comparing cells treated with compound at various concentrations in the absence of camptothecin with cells incubated in the absence of both compound and camptothecin. […] Compound-induced cellular protection was assessed by comparing cells incubated with camptothecin with cells incubated with camptothecin in the presence of compound, in a concentration-dependent manner.

C57BL/6 mice given MPTP [2] = assay: MPTP model: striatal dopamine, serotonin and metabolites by HPLC; format: in vivo, mouse; conditions: striatal tissue; for levels of dopamine, DOPAC, and HVA as compared to the MPTP-induced reduction (in words): 2 mg/kg; for 5-HIAA / 5-HT / DOPAC / Dopamine / HVA: compound 2 mg/kg + MPTP, mean±SE, 4-6 mice/group
Protocol: (§2) The ability of PFTα (5) and compounds 5× (Z-1-117) and 13 (Z-1-143) to protect dopaminergic neurons against MPTP toxicity was tested. MPTP (20 mg/kg) was administered intraperitoneally to 2 month-old male C57BL/6 mice by four injections at two hour intervals to induce dopaminergic cell death.
In a separate experiment, levels of striatal dopamine, dopamine metabolites, serotonin, and serotonin metabolites were measured using HPLC analysis. Specifically, mice were euthanatized, and striatal tissue samples were removed and levels of dopamine, DOPAC, HVA, 5-HT, 5-HIAA were quantified. […] There was no significant difference in levels of serotonin or serotonin metabolites.

C57BL/6 mice given MPTP [3] = assay: MPTP-induced Parkinson's disease model: rotarod behavioral tests; format: in vivo, mouse; conditions: 2 mg/kg i.p. 30 min before first and 30 min after last MPTP injection; day 7
Protocol: as §2
At seven days, behavioral tests were performed using the rotarod test equipment. The number of falls and running times were measured.

[4] = test system: C57BL/6 mice, middle cerebral artery occlusion; assay: Transient focal cerebral ischemia/reperfusion (middle cerebral artery occlusion) stroke model; format: in vivo, mouse
Protocol: Surgery was performed in anesthetized (xylazine 5 mg/kg, chloral hydrate 350 mg/kg) mice (3 month old C57B1/6) in accordance with a protocol approved by the NIH Animal Care and Use Committee. The focal ischemia/reperfusion model has been described previously. See Bruce et al. (1996) Nat. Med. 2:788-94. This method involves occluding the middle cerebral artery for 1 h with a nylon thread, and then removing it to allow reperfusion. During the procedure, mice were maintained at 37° C. and blood gases, flow and pressure were monitored. At 24 h after ischemia, mice were anesthetized, decapitated, and their brains were cut into 2 mm coronal sections, which then were stained with triphenyltetrazolium for 30 min at 37° C. Images of the stained brains were captured by digital camera for quantitative analysis of infarct area and volume.
The infarct volume for vehicle was 40 mm^3. When mice were treated with PFTα, infarct volume was 20 mm^3, a highly significant 50% decrease.

[5] = test system: striatal tyrosine hydroxylase (TH); assay: MPTP model: striatal tyrosine hydroxylase levels by Western blot densitometry; format: in vivo, mouse; conditions: 2 mg/kg, 7 days later, hydrobromide
Protocol: as §2
Levels of tyrosine hydroxylase (TH), the enzyme that catalyzes the rate-limiting step in dopamine synthesis, also were assessed in the striatum using Western blot analysis.

[6] = test system: substantia nigra dopaminergic neurons; assay: MPTP model: TH-immunostained cells in the substantia nigra; format: in vivo, mouse; conditions: 2 mg/kg, seven days after treatment, 4 mice/group
Protocol: as §2
In yet another experiment, the number of TH-immunostained cells in the substantia nigra was assessed in four animals seven days after treatment. Mice were euthanized and perfused by 4% paraformadehyde transcardially. Brain sections were cut and immunostained with an antibody against TH. PFT-A and compound 5× attenuated MPTP-induced loss of substantia nigra dopaniinergic neurons.

[7] = 6 h preincubation with compound, camptothecin 40 μM for 24 h; read-out: PD50; concentration of compounds required to induce 50% protection (PC50) of PC12 cells from camptothecin-induced cell-death
[8] = compounds 100-400 nM, camptothecin 40 μM 24 h
[9] = read-out: PD50; concentration of compounds required to induce 50% protection (PC50) of PC12 cells from camptothecin-induced cell-death; 6 h preincubation with compound, camptothecin 40 μM for 24 h

Compound | neuron survival increased [1] | neuroprotection of hippocampal neurons against camptothecin (in words) (rat hippocampal neurons) | neuroprotection of hippocampal neurons against etoposide (in words) (rat hippocampal neurons) | protection of primary hippocampal cells against death induced by camptothecin and etoposide (in words) (rat hippocampal neurons; Hydrobromide) | neuronal survival (rat hippocampal neurons) | caspase activation (in words) (caspase activation) | EC50 (PC12 cells; [7]) | levels of dopamine, DOPAC, and HVA as compared to the MPTP-induced reduction (in words) (C57BL/6 mice given MPTP [2]) | 5-HIAA (C57BL/6 mice given MPTP [2]) | 5-HT (C57BL/6 mice given MPTP [2]) | DOPAC (C57BL/6 mice given MPTP [2]) | Dopamine (C57BL/6 mice given MPTP [2]) | HVA (C57BL/6 mice given MPTP [2]) | number of falls on rotarod (in words) (C57BL/6 mice given MPTP [3]) | running time on rotarod (in words) (C57BL/6 mice given MPTP [3]) | protection of PC12 cells against camptothecin-induced death (in words) (PC12 cells; [8]) | EC50 (PC12 cells; [9]) | MPTP-induced loss of substantia nigra dopaminergic neurons, TH-positive cells (in words) [6] | further results
Br.CCC(=O)Cn1c2c(sc1=N)CCCC2 [Compound 1, 1-(4.5,6,7-tertahydro-2-imino-3(2H)-benzothiazolyl)-2-butanone Hydrobromide] | 39% | significant neuroprotection | more active than compound PFTα | had neuroprotection; also recorded: highly potency | 65% | suppress caspase activation | 0.571 µM | – | – | – | – | – | – | – | – | – | – | – | protection of hippocampal neurons against glutamate-induced death (in words) [1]: protect
Cc1ccc(C(=O)Cn2c3c(sc2=N)CCCC3)cc1 [Compound 5, 1-(4-methylphenyl)-2-(4,5,6,7-tetrahydro-2-imino-3(2H)-benzothiazolyl)-ethanone hydrobromide, reference compound] | – | – | had activity | – | 62% | – | – | statistically significant increase | 245 ± 33 pg/mg tissue weight | 419 ± 20 pg/mg tissue weight | 170 pg/mg tissue weight | 3314 pg/mg tissue weight | 328 ± 35 pg/mg tissue weight | statistically significant decease | statistically significant increase | protected | 0.252 µM | attenuated | improved cell survival compared to vehicle controls after pretreatment (rat hippocampal neurons; 200 nM pretreatment 1 hour, camptothecin 5 μM or etoposide 2.5 μM): improved cell survival; protection of primary hippocampal cells against death induced by camptothecin and etoposide (in words) (rat hippocampal neurons; listed as PFTα, hydrobromide): protects; also recorded: potent activity; toxicity when administered alone to hippocampal cells (rat hippocampal neurons; concentrations up to 400 nM): neither PFTα (5) nor its precursor were toxic; brain entry after systemic administration (in words) ([4]; 2 mg/kg i.p.): entered and acted in the brain; infarct area at four different brain levels (in words) ([4]; 2 mg/kg i.p.): reduction in the infarct area; infarct volume ([4]; 2 mg/kg i.p. before 1 h MCA occlusion, 24 h after ischemia): 20 mm^3; decrease in infarct volume ([4]; 2 mg/kg i.p., versus vehicle (40 mm^3)): 50%; MPTP-induced loss of striatal tyrosine hydroxylase (in words) ([5]; listed as PFT-a): reverse the MPTP reduction in TH levels; MPTP-induced loss of striatal tyrosine hydroxylase (in words) ([5]; listed as PFT-alpha): attenuate; neuronal survival of PC12 cells increased (PC12 cells; compared to PC12 cells treated with camptothecin in the absence of PFTα): up to 70%
Br.Cc1ccc(C(=O)Cn2c3c(sc2=N)CC(C)CC3)cc1 (stereo not shown) [Compound 5×, 1-(4-methylphenyl)-2-(4,5,6,7-tertahydro-2-imino-6-methyl-3(2H)-benzothiazolyl)-ethanone hydrobromide] | – | could not protect neurons effectively | activity comparable to PFTα | – | 29% | – | 0.306 µM | statistically significant increase | 246 ± 15 pg/mg tissue weight | 424 ± 12 pg/mg tissue weight | 102 pg/mg tissue weight | 1833 pg/mg tissue weight | 302 ± 20 pg/mg tissue weight | statistically significant decease | statistically significant increase | highly potent | – | attenuated | protection of primary hippocampal cells against death induced by camptothecin and etoposide (in words) (rat hippocampal neurons): highly potency; MPTP-induced loss of striatal tyrosine hydroxylase (in words) [5]: attenuate; also recorded: reverse the MPTP reduction in TH levels
N=c1sc2c(n1Cc1ccccc1)CCCC2 [Compound 14, 3-(phenylmethyl)-4,5,6,7-tetrahydro-2(3H)-benzothiazolimine Hydrobromide] | 133% | significant neuroprotection | more active than compound PFTα | had neuroprotection; also recorded: highly potency | 61% | suppress caspase activation | – | – | – | – | – | – | – | – | – | – | 0.741 µM | – | protection of hippocampal neurons against glutamate-induced death (in words) ([1]; Hydrobromide): protect; also recorded: at least partially reversed
